Where “and” joins values, the source holds several entries; their conditions need not be identical. Equal entries are not always repeated. Ends that are not written are not given here.
Tests used:
in vitro = conditions: human, HaCaT keratinocyte cells
Method: To determine the cytotoxicity of the peptides produced by the method of Example 1 in normal cell line, cytotoxicity was measured by using human keratinocyte cell line (HaCaT cell line, Dr. N E. Fusenig, Heidelberg, Germany).
Specifically, HaCaT cells, which have been cultured in DMEM medium containing 10% FBS (fetal bovine serum), were aliquoted in a microtiter plate to have 2×10^5 cells per well. […] Twenty-four hours later, a reaction solution containing 0.5 mg/ml MTT (thiazolyl blue tetrazolium bromide) dissolved in phosphate buffered saline (PBS) was added in an amount of 100 μl to each well and the reaction was allowed to occur for 4 hours. After that, the supernatant was discarded, and, by dissolving MTT crystals that are formed by adding 200 μl DMSO (dimethyl sulfoxide), the absorbance at 560 nm was measured to determine the cell survival ability.

[1] = tested on: Trichosporon beigelii KCTC 7707; conditions: KCTC 7707, 18 h
From the text: (§1) To compare the antimicrobial activity among the peptides produced by the method of Example 1, the inventors of the present invention measured the minimal growth inhibitory concentration (MIC), which is minimum concentration of the peptide not allowing any […] of bacterial cells.
(§2) Specifically, the bacterial strains described in the following Table 2 were purchased and cultured to a mid-log phase in a medium that is appropriate for each strain. […] After the addition to a plate, the cells were cultured for 18 hours at 37° C. […] As a control, Pseudin-2 as a mother peptide was used.

[2] = tested on: Pseudomonas aeruginosa isolated strain 4007 (tolerance to antibiotics)
From the text: as §1, §2

[3] = tested on: Listeria monocytogenes KCTC 3710; conditions: KCTC 3710, 18 h
From the text: as §1, §2

[4] = tested on: Staphylococcus aureus CCARM 3090 (tolerance to antibiotics)
From the text: as §1, §2

[5] = tested on: Escherichia coli CCARM 1229 (tolerance to antibiotics)
From the text: as §1, §2

[6] = tested on: Bacillus subtilis KCTC 1998; conditions: KCTC 1998, 18 h
From the text: as §1, §2

[7] = tested on: Staphylococcus aureus ATCC 25923; conditions: ATCC 25923, 18 h
From the text: as §1, §2

[8] = tested on: Salmonella typhimurium KCTC 1926; conditions: KCTC 1926, 18 h
From the text: as §1, §2

[9] = tested on: Escherichia coli CCARM 1238 (tolerance to antibiotics)
From the text: as §1, §2

[10] = tested on: Candida albicans KCTC 7270; conditions: KCTC 7270, 18 h
From the text: as §1, §2

[11] = tested on: Escherichia coli ATCC 25922; conditions: ATCC 25922, 18 h
From the text: as §1, §2

[12] = tested on: Pseudomonas aeruginosa isolated strain 4891 (tolerance to antibiotics)
From the text: as §1, §2

[13] = tested on: Pseudomonas aeruginosa ATCC 27853; conditions: ATCC 27853, 18 h
From the text: as §1, §2

[14] = tested on: Staphylococcus aureus CCARM 3518 (tolerance to antibiotics)
From the text: as §1, §2

[15] = tested on: erythrocytes of a mouse (Balb/c); experiment: Erythrocyte hemolytic activity; conditions: 1 hour at 37° C.
Method: To compare the cytotoxicity among the peptides that are produced by the method of Example 1, erythrocyte hemolytic activity of the synthesized peptide was measured.
After that, the amount of hemoglobin contained in a supernatant collected by centrifuge at 1,000×g was determined by measuring the absorbance at a wavelength of 414 nm. As a control to be used as a reference for cell disruption level, the supernatant collected by a treatment with 1% Triton X-100 (Sigma, USA) and a reaction for 1 hour at 37° C. was used to measure the absorbance. By setting the resulting absorbance value at 100% of the erythrocyte hemolytic activity, hemolysis of each peptide was calculated using the following equation 1. Erythrocyte disrupting ability (%)=(Absorbance A−Absorbance B)/(Absorbance C−Absorbance B)×100 Equation 1 (in the above equation, Absorbance A indicates the absorbance of a reaction solution treated with each peptide, in which the absorbance is measured at a wavelength of 414 nm; Absorbance B indicates the absorbance of a reaction solution treated with PBS, in which the absorbance is measured at a wavelength of 414 nm; and Absorbance C indicates the absorbance of a reaction solution treated with 1% Triton X-100, in which the absorbance is measured at a wavelength of 414 nm).

plasmid DNA (pRSETB) = experiment: Binding between antimicrobial peptide and DNA (agarose gel electrophoresis); conditions: plasmid DNA 300 ng, peptide/DNA ratio 0.25:1 to 4:1, 10 minutes at 37° C.
Method: Specifically, plasmid DNA (pRSETB, 300 ng) and the peptide were reacted for at different ratio (i.e., peptide/DNA ratio was 0 (DNA only), 0.25:1, 0.5:1, 1:1, 1.5:1, 2:1, 3:1, or 4:1) for 10 minutes at 37° C. After that, electrophoresis was carried out using 1% agarose gel followed by staining with ethidium bromide (EtBr) and UV determination.

Staphylococcus aureus = experiment: Flow cytometry, propidium iodide, effect on bacteria membrane; assay type: cell-based; conditions: peptide at MIC
Method: (§3) After that, the supernatant was removed by centrifuge (10,000 rpm) and stained with propidium iodide (PI, concentration of 10 μg/ml) for 30 minutes at 4° C. Thereafter, unbound propidium iodide was removed by centrifuge, and the problem of cell aggregation phenomenon was solved by adding physiological saline (PBS) in an amount of 1 ml.

Escherichia coli = experiment: as above; assay type: cell-based; conditions: peptide at MIC
Method: as §3

Row | Substance | viability at 24 h, 3.13 µM (in vitro; Cell survival ability) | viability at 24 h, 6.25 µM (in vitro; Cell survival ability) | viability at 24 h, 12.5 µM (in vitro; Cell survival ability) | viability at 24 h, 25 µM (in vitro; Cell survival ability) | viability at 24 h, 50 µM (in vitro; Cell survival ability) | viability at 24 h, 100 µM (in vitro; Cell survival ability) | Minimal inhibitory concentration [1] | Minimal inhibitory concentration [2] | viability at 24 h, 3.13 µM (in vitro) | viability at 24 h, 6.25 µM (in vitro) | viability at 24 h, 12.5 µM (in vitro) | viability at 24 h, 25 µM (in vitro) | viability at 24 h, 50 µM (in vitro) | viability at 24 h, 100 µM (in vitro) | Erythrocyte disrupting ability ([15]; peptide concentration 3.13 μM) | Erythrocyte disrupting ability ([15]; peptide concentration 6.25 μM) | Erythrocyte disrupting ability ([15]; peptide concentration 12.5 μM) | Erythrocyte disrupting ability ([15]; peptide concentration 25 μM) | Erythrocyte disrupting ability ([15]; peptide concentration 50 μM) | Erythrocyte disrupting ability ([15]; peptide concentration 100 μM) | other results
1 | ALNALKKVSQGIHEAIKLIANHVQ-NH2 [Pse-Anal7] | 100% | 100% | 100% | 100% | 100% | 100% | 32 µM | 32 µM |  |  |  |  |  |  |  |  |  |  |  |  | Minimal inhibitory concentration [3]: 16 µM; Minimal inhibitory concentration [4]: 32 µM; Minimal inhibitory concentration [5]: 16 µM; Minimal inhibitory concentration [6]: 16 µM; Minimal inhibitory concentration [7]: 16 µM; Minimal inhibitory concentration [8]: 8 µM; Minimal inhibitory concentration [9]: 16 µM; Minimal inhibitory concentration [10]: 32 µM; Minimal inhibitory concentration [11]: 8 µM; Minimal inhibitory concentration [12]: 32 µM; Minimal inhibitory concentration [13]: 8 µM; Minimal inhibitory concentration [14]: 32 µM
2 | GLNALKKVFQGIHEAIKKINNHVQ-NH2 [Pse-18L-K] |  |  |  |  |  |  |  |  | 100% | 100% | 100% | 100% | 100% | 81.5% | 2.4% | 3.4% | 5.4% | 12.5% | 24.2% | 36.7% | 
3 | GLNALKKVFQGIHEAIKLINNHVQ-NH2 [Pseudin-2] |  |  |  |  |  |  |  |  | 100% | 100% | 100% | 100% | 100% | 82.1% | 0% | 0% | 0% | 0% | 3.2% | 10% and 10.1% | Binding to DNA (plasmid DNA (pRSETB)): did not show any binding to DNA
4 | GLNALKKVSQGIHEAIKLINNHVQ-NH2 [Pse-Anal5] |  |  |  |  |  |  |  |  | 100% | 100% | 100% | 100% | 96.3% | 83.5% | 0% | 0.7% | 2.3% | 5.9% | 11.7% | 20.1% | 
5 | GLNALKKVSQGIHESIKLINNHVQ-NH2 [Pse-Anal6] | 100% | 100% | 100% | 100% | 100% | 92.1% | 64 µM | 64 µM |  |  |  |  |  |  |  |  |  |  |  |  | Minimal inhibitory concentration [3]: 32 µM; Minimal inhibitory concentration [4]: 64 µM; Minimal inhibitory concentration [5]: 64 µM; Minimal inhibitory concentration [6]: 32 µM; Minimal inhibitory concentration [7]: 32 µM; Minimal inhibitory concentration [8]: 16 µM; Minimal inhibitory concentration [9]: 64 µM; Minimal inhibitory concentration [10]: 64 µM; Minimal inhibitory concentration [11]: 16 µM; Minimal inhibitory concentration [12]: 64 µM; Minimal inhibitory concentration [13]: 16 µM; Minimal inhibitory concentration [14]: 64 µM
6 | LNALKKVFQGIHEAIKLI-NH2 [Pse-T1] |  |  |  |  |  |  |  |  | 100% | 100% | 100% | 100% | 98.8% | 86.2% | 0% | 0% | 0% | 0% | 3.9% | 12.3% | Membrane disrupting ability compared with Pseudin-2 (Staphylococcus aureus): higher membrane disrupting ability than Pseudin-2; Membrane disrupting ability compared with Pseudin-2 (Escherichia coli): higher membrane disrupting ability than Pseudin-2; Binding to DNA (plasmid DNA (pRSETB)): showed binding to DNA
7 | WLNALKKVFQGIHEAIKLINNHVQ-NH2 [Pse-Anal1] |  |  |  |  |  |  |  |  | 80.1% | 35.2% | 26.8% | 15.9% | 13.6% | 1.8% | 50.9% | 58.6% | 68.9% | 82.0% | 93.5% | 100% | 
8 | WLNALKKVFQGIHEAIKLIWNHVQ-NH2 [Pse-Anal2] | 81.3% | 48.1% | 32.2% | 18.8% | 15.7% | 5.1% | 32 µM | 2 µM |  |  |  |  |  |  |  |  |  |  |  |  | Minimal inhibitory concentration [3]: 8 µM; Minimal inhibitory concentration [4]: 4 µM; Minimal inhibitory concentration [5]: 2 µM; Minimal inhibitory concentration [6]: 4 µM; Minimal inhibitory concentration [7]: 4 µM; Minimal inhibitory concentration [8]: 2 µM; Minimal inhibitory concentration [9]: 2 µM; Minimal inhibitory concentration [10]: 32 µM; Minimal inhibitory concentration [11]: 2 µM; Minimal inhibitory concentration [12]: 4 µM; Minimal inhibitory concentration [13]: 2 µM; Minimal inhibitory concentration [14]: 4 µM
9 | WLNALKKVFQGIHEAIKLIWNWVQ-NH2 [Pse-Anal3] | 55.4% | 45.8% | 25.6% | 24.1% | 13.6% | 10.8% | 32 µM | 64 µM |  |  |  |  |  |  |  |  |  |  |  |  | Minimal inhibitory concentration [3]: 32 µM; Minimal inhibitory concentration [4]: 32 µM; Minimal inhibitory concentration [5]: 32 µM; Minimal inhibitory concentration [6]: 32 µM; Minimal inhibitory concentration [7]: 32 µM; Minimal inhibitory concentration [8]: 16 µM; Minimal inhibitory concentration [9]: 32 µM; Minimal inhibitory concentration [10]: 32 µM; Minimal inhibitory concentration [11]: 16 µM; Minimal inhibitory concentration [12]: 64 µM; Minimal inhibitory concentration [13]: 16 µM; Minimal inhibitory concentration [14]: 32 µM
